Consider 12 compounds from ChEMBL document CHEMBL1201862, “PubChem BioAssay data set” (2004).

Structures are written as SMILES.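 All cell lines were grown in 96-well plates and treated with compound for 48 hours. GI50: concentration for 50% inhibition of growth.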 Active and inactive are the calls of the source. Cut-off read from the data, not from the text of the source: active = GI50 up to about 1.1 µM and inactive = higher.

Some test systems named below: EKVX; DMS-273; K562; HOP-62; OVCAR-8; OVCAR-4; SNB-75; HL-60; UACC-62; SK-MEL-5; TK-10; OVCAR-3; UO-31; Malme-3M; OVCAR-5; HT-29; Hs-578T; T47D; NCI-H522; MCF7.
Holding throughout (test): growth of human tumour cells (NCI), 48 h

Turning to `C/C(=N\N=C(\N)S)c1ccc(Oc2ccccc2)cc1`, the GI50 was 12.2 µM (inactive) in the assay with EKVX; 5.96 µM (inactive) in the assay on DMS-273; 4.83 µM (inactive) in the assay with K562; 20.5 µM (inactive) in the assay on HOP-62; 11.7 µM (inactive) with OVCAR-8; 3.7 µM (inactive) in the assay with OVCAR-4. Moreover, the GI50 with SNB-75 is 7.38 µM (inactive); in the assay on HL-60 it was 4.06 µM (inactive); with UACC-62 it was 10.6 µM (inactive); with SK-MEL-5 it was 5.12 µM (inactive); with TK-10 it was 4.09 µM (inactive); in the assay with OVCAR-3, 10.1 µM (inactive).
For the compound `Cc1ccc2nc(NC(=O)C(=O)CC(=O)c3cccc4ccccc34)sc2c1`, the GI50 in the assay on EKVX was 92 µM (inactive); in the assay with DMS-273 it was 40.4 µM (inactive); with K562, 31.5 µM (inactive); with HOP-62, 22.2 µM (inactive); in the assay on UO-31, > 100 µM (inactive); with OVCAR-8, 23.4 µM (inactive). Besides, the GI50 is 16.2 µM (inactive) in the assay on OVCAR-4; 16.9 µM (inactive) with SNB-75; > 100 µM (inactive) in the assay on HL-60; 25.6 µM (inactive) in the assay on UACC-62; 23.1 µM (inactive) with SK-MEL-5; 27 µM (inactive) in the assay on Malme-3M. The GI50 in the assay with TK-10 was 24.1 µM (inactive); in the assay with OVCAR-3, 19.9 µM (inactive); in the assay on OVCAR-5, > 100 µM (inactive); in the assay on HT-29 it was 36 µM (inactive).
As to `O=[N+]([O-])c1cccc2nc3ccccc3c(NCCc3cccc[n+]3[O-])c12`, the GI50 in the assay with EKVX is < 0.0212 µM (active); with K562, 0.0168 µM (active); with HOP-62, < 0.0177 µM (active); in the assay with Hs-578T it was 0.0782 µM (active); with UO-31, < 0.0193 µM (active); with T47D, < 0.0378 µM (active). Besides, the GI50 was 0.0187 µM (active) in the assay with NCI-H522; < 0.0176 µM (active) in the assay with OVCAR-8; 0.0541 µM (active) in the assay on OVCAR-4; < 0.0438 µM (active) in the assay with SNB-75; < 0.0427 µM (active) with HL-60; < 0.0116 µM (active) with MCF7. Besides, the GI50 with UACC-62 is 0.052 µM (active); in the assay on SK-MEL-5 it was < 0.01 µM (active); in the assay with Malme-3M, < 0.0144 µM (active); in the assay on TK-10 it was < 0.0486 µM (active); in the assay on OVCAR-3 it was < 0.0385 µM (active); with OVCAR-5 it was < 0.0194 µM (active). Further, the GI50 in the assay on HT-29 is 0.0103 µM (active).
For `O=C1CCC(=O)C12CCc1cccc(O)c12`, the GI50 with EKVX, in the assay with DMS-273, in the assay with K562, in the assay on HOP-62, in the assay with UO-31 and with OVCAR-8 was > 100 µM (inactive) each time. Further, the GI50 in the assay with OVCAR-4 is > 100 µM (inactive); in the assay on SNB-75 it was 39 µM (inactive); in the assay with HL-60 it was > 100 µM (inactive); in the assay with UACC-62, > 100 µM (inactive); in the assay with Malme-3M, > 100 µM (inactive); in the assay with TK-10, > 100 µM (inactive). The GI50 in the assay with OVCAR-3 and in the assay with HT-29 was > 100 µM (inactive) in each case.
Consider `CCN(CC)CCn1c(=O)c2cccnc2n2c3c(=O)n(C)c(=O)n(C)c3nc12`, for which the GI50 in the assay with EKVX was > 100 µM (inactive); in the assay on K562 it was > 100 µM (inactive); in the assay with HOP-62, > 100 µM (inactive); with Hs-578T, > 100 µM (inactive); with UO-31, 86.1 µM (inactive); with T47D it was > 100 µM (inactive). Besides, the GI50 is > 100 µM (inactive) with NCI-H522; > 100 µM (inactive) with OVCAR-8; > 100 µM (inactive) in the assay with OVCAR-4; > 100 µM (inactive) in the assay with SNB-75; 69 µM (inactive) in the assay on HL-60; 45.1 µM (inactive) in the assay with MCF7. The GI50 in the assay on UACC-62 is 57 µM (inactive); in the assay on SK-MEL-5, 47.1 µM (inactive); with Malme-3M, 65.2 µM (inactive); in the assay with TK-10, 23.2 µM (inactive); in the assay on OVCAR-3, > 100 µM (inactive); in the assay on OVCAR-5 it was > 100 µM (inactive). Also, in the assay on HT-29, the GI50 is > 100 µM (inactive).
On to `CC12OC(=O)C(C#N)C1(C)C1C(=O)CCCC12` (stereo unspecified), for which the GI50 in the assay with EKVX, in the assay with DMS-273, with K562, in the assay with UO-31, with OVCAR-8 and in the assay on OVCAR-4 was > 100 µM (inactive) throughout. Moreover, the GI50 with SNB-75, in the assay with HL-60, in the assay on UACC-62, with SK-MEL-5, in the assay on Malme-3M and with TK-10 was > 100 µM (inactive) each time. Further, the GI50 in the assay on OVCAR-3 and in the assay on OVCAR-5 was > 100 µM (inactive) in each case.
As to `O=C(SC1=NCCN1)c1cccc2ccccc12`, the GI50 in the assay on EKVX was 28.3 µM (inactive); with K562 it was 25.4 µM (inactive); in the assay with HOP-62 it was 55 µM (inactive); in the assay on Hs-578T, 81.3 µM (inactive); in the assay with UO-31, 42.9 µM (inactive); in the assay with T47D, 44.9 µM (inactive). Further, the GI50 with NCI-H522 is 19.5 µM (inactive); in the assay with OVCAR-8, 71.9 µM (inactive); with OVCAR-4 it was 59.8 µM (inactive); in the assay with SNB-75 it was 22.8 µM (inactive); with HL-60, 23.8 µM (inactive); in the assay on MCF7, 50.9 µM (inactive). Also, the GI50 was > 100 µM (inactive) in the assay on UACC-62; 66.5 µM (inactive) in the assay with SK-MEL-5; 78.9 µM (inactive) in the assay on Malme-3M; > 100 µM (inactive) in the assay on TK-10; 56.9 µM (inactive) with OVCAR-3; > 100 µM (inactive) in the assay on OVCAR-5. Also, in the assay on HT-29, the GI50 is 38.6 µM (inactive).
On to `O=C(O)COc1cc(-c2ccccc2)nc2ccc(F)cc12`, for which the GI50 in the assay on EKVX is > 100 µM (inactive); with K562 it was > 100 µM (inactive); in the assay with HOP-62, > 100 µM (inactive); in the assay with Hs-578T it was > 100 µM (inactive); with UO-31, 70 µM (inactive); with T47D, > 100 µM (inactive). The GI50 in the assay with NCI-H522 is 58.1 µM (inactive); in the assay on OVCAR-8, > 100 µM (inactive); with OVCAR-4, > 100 µM (inactive); in the assay with SNB-75 it was > 100 µM (inactive); in the assay with HL-60, > 100 µM (inactive); in the assay with MCF7, > 100 µM (inactive). The GI50 in the assay with UACC-62 is > 100 µM (inactive); in the assay on SK-MEL-5, > 100 µM (inactive); in the assay with Malme-3M, > 100 µM (inactive); in the assay with TK-10, 0.0261 µM (active); in the assay on OVCAR-3, > 100 µM (inactive); with OVCAR-5, > 100 µM (inactive). Also, the GI50 in the assay with HT-29 is > 100 µM (inactive).
As to `CCN(CC)c1ccc(C2N3CCCCC3[C@@H]3c4[nH]c5ccccc5c4CCN23)cc1` (stereo partly specified), the GI50 in the assay with EKVX was 74.8 µM (inactive); with DMS-273, 32.9 µM (inactive); in the assay on K562, 15.2 µM (inactive); in the assay with HOP-62, > 100 µM (inactive); in the assay on UO-31 it was 27 µM (inactive); in the assay with OVCAR-8, 35.3 µM (inactive). Further, the GI50 in the assay with OVCAR-4 was 36.5 µM (inactive); in the assay with SNB-75, 6.11 µM (inactive); with HL-60, 7.43 µM (inactive); in the assay on UACC-62 it was 19.5 µM (inactive); in the assay with SK-MEL-5 it was 17.3 µM (inactive); in the assay on Malme-3M it was 24.2 µM (inactive). The GI50 is 27.2 µM (inactive) with TK-10, 23.9 µM (inactive) in the assay with OVCAR-3, 51.3 µM (inactive) in the assay with OVCAR-5 and 16.1 µM (inactive) with HT-29.
For the compound `O=C(O)c1cccc(F)c1C(=O)c1ccc2ccccc2c1`, the GI50 in the assay on EKVX was > 100 µM (inactive); with K562, > 100 µM (inactive); in the assay with HOP-62, > 100 µM (inactive); with Hs-578T it was > 100 µM (inactive); with UO-31 it was > 100 µM (inactive); with T47D, 3.94 µM (inactive). The GI50 is 62.2 µM (inactive) in the assay on NCI-H522; > 100 µM (inactive) with OVCAR-8; > 100 µM (inactive) in the assay with OVCAR-4; 73.1 µM (inactive) in the assay on SNB-75; > 100 µM (inactive) with HL-60; > 100 µM (inactive) in the assay on MCF7. For the same compound, the GI50 with UACC-62 is > 100 µM (inactive); in the assay with SK-MEL-5 it was < 0.01 µM (active); in the assay with Malme-3M it was > 100 µM (inactive); in the assay on TK-10, > 100 µM (inactive); with OVCAR-3, > 100 µM (inactive); with OVCAR-5, > 100 µM (inactive). In addition, the GI50 in the assay on HT-29 is > 100 µM (inactive).
For the compound `COc1cc(C2c3cc4c(cc3[C@@H](NCCN3CCCCC3)C3COC(=O)[C@H]23)OCO4)cc(OC)c1O` (stereo partly specified), the GI50 is 1.55 µM (inactive) in the assay with EKVX; 0.0726 µM (active) in the assay with DMS-273; 0.615 µM (active) in the assay on K562; 0.064 µM (active) in the assay on HOP-62; 0.41 µM (active) with UO-31; 0.718 µM (active) in the assay on OVCAR-8. Moreover, the GI50 in the assay on OVCAR-4 is 0.253 µM (active); in the assay with HL-60 it was 0.0426 µM (active); in the assay on UACC-62, 0.272 µM (active); in the assay with SK-MEL-5, 0.394 µM (active); in the assay on Malme-3M, 0.29 µM (active); in the assay with TK-10 it was 1.65 µM (inactive). In addition, the GI50 in the assay on OVCAR-3 was 0.78 µM (active); in the assay with OVCAR-5, 1.41 µM (inactive); in the assay on HT-29, 1.19 µM (inactive).
For the compound `O=C(/C=C/c1ccc(O)c(-c2cc(C(=O)/C=C/c3ccc(O)cc3)c(O)cc2O)c1)c1ccc(O)cc1O` [RHUSCHALCONE VI], the GI50 in the assay with EKVX is > 50 µM (inactive); with K562 it was 13.6 µM (inactive); in the assay on HOP-62, 30.9 µM (inactive); in the assay on Hs-578T, 30 µM (inactive); in the assay with UO-31, > 50 µM (inactive); in the assay with T47D, 33.3 µM (inactive). The GI50 in the assay with NCI-H522 was 37.4 µM (inactive); in the assay with OVCAR-8, 11.7 µM (inactive); with OVCAR-4 it was 17.9 µM (inactive); in the assay on SNB-75, 13.3 µM (inactive); in the assay on HL-60 it was 17.3 µM (inactive); in the assay on MCF7, 20.2 µM (inactive). In addition, the GI50 in the assay with UACC-62 is 9.16 µM (inactive); in the assay on SK-MEL-5 it was 27.8 µM (inactive); in the assay with Malme-3M, 22.1 µM (inactive); in the assay with TK-10, > 50 µM (inactive); with OVCAR-3, 16.2 µM (inactive); in the assay on OVCAR-5 it was > 50 µM (inactive). The GI50 with HT-29 was 10.1 µM (inactive).
